pIC50: −log10 of the molar value.
Tested on: 945468-187-T-J3-PDC spheroids with HUVEC/MSC, viability
Assay: Anticancer human tumor 945468-187-T-J3-PDC patient-derived rectal carcinoma cell line growth inhibition [PI3K]
Details: for pIC50: curve of first compound; for viability, T/C: stronger effect = lower value
Outline: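 Multi-cell spheroids combine tumor cells with HUVEC and human MSCs, treated with targeted agents alone or with inavolisib, alpelisib, duvelisib or copanlisib. Concentrations fall in half-log steps from at or near clinical Cmax, or from 10 microM where Cmax is unknown; viability read-out.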

[1] = second compound 0.0316 µM, first compound 0.0316 µM
[2] = second compound 0.0316 µM, first compound 0.1 µM
[3] = second compound 0.1 µM, first compound 0.0316 µM
[4] = second compound 0.1 µM, first compound 0.1 µM
[5] = second compound 0.316 µM, first compound 0.0316 µM
[6] = second compound 0.316 µM, first compound 0.1 µM
[7] = second compound 1 µM, first compound 0.0316 µM
[8] = second compound 1 µM, first compound 0.1 µM
[9] = second compound 3.16 µM, first compound 0.0316 µM
[10] = second compound 3.16 µM, first compound 0.1 µM
[11] = second compound 10 µM, first compound 0.0316 µM
[12] = second compound 10 µM, first compound 0.1 µM
[13] = second compound 0.0316 µM, first compound 0.316 µM
[14] = second compound 0.0316 µM, first compound 1 µM
[15] = second compound 0.0316 µM, first compound 3.16 µM
[16] = second compound 0.0316 µM, first compound 10 µM
[17] = second compound 0.1 µM, first compound 0.316 µM
[18] = second compound 0.1 µM, first compound 1 µM
[19] = second compound 0.1 µM, first compound 3.16 µM
[20] = second compound 0.1 µM, first compound 10 µM
[21] = second compound 0.316 µM, first compound 0.316 µM
[22] = second compound 0.316 µM, first compound 1 µM
[23] = second compound 0.316 µM, first compound 3.16 µM
[24] = second compound 0.316 µM, first compound 10 µM
[25] = second compound 1 µM, first compound 0.316 µM
[26] = second compound 1 µM, first compound 1 µM
[27] = second compound 1 µM, first compound 3.16 µM
[28] = second compound 1 µM, first compound 10 µM
[29] = second compound 3.16 µM, first compound 0.316 µM
[30] = second compound 3.16 µM, first compound 1 µM
[31] = second compound 3.16 µM, first compound 3.16 µM
[32] = second compound 3.16 µM, first compound 10 µM
[33] = second compound 10 µM, first compound 0.316 µM
[34] = second compound 10 µM, first compound 1 µM
[35] = second compound 10 µM, first compound 3.16 µM
[36] = second compound 10 µM, first compound 10 µM
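Note: spheroids exposed to agents for 7 days before viability read.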
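Throughout, for viability, T/C: 100% = DMSO vehicle control viability.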

Compound: CC(C)n1nc(-c2ccc3oc(N)nc3c2)c2c(N)ncnc21 + CC(Nc1ncnc2nc[nH]c12)c1cc2cccc(Cl)c2c(=O)n1-c1ccccc1
- pIC50 (second compound 0.0316 µM): < 7.00
- pIC50 (second compound 0.1 µM): < 7.00
- pIC50 (second compound 0.316 µM): < 7.00
- pIC50 (second compound 1 µM): < 7.00
- pIC50 (second compound 3.16 µM): 7.06
- pIC50 (second compound 10 µM): 7.15
- viability, T/C (second compound 0.0316 µM, first compound 0.000316 µM): 105%
- viability, T/C (second compound 0.0316 µM, first compound 0.001 µM): 101%
- viability, T/C (second compound 0.0316 µM, first compound 0.00316 µM): 95%
- viability, T/C (second compound 0.0316 µM, first compound 0.01 µM): 99.1%
- viability, T/C [1]: 93.2%
- viability, T/C [2]: 62.2%
- viability, T/C (second compound 0.1 µM, first compound 0.000316 µM): 122%
- viability, T/C (second compound 0.1 µM, first compound 0.001 µM): 103%
- viability, T/C (second compound 0.1 µM, first compound 0.00316 µM): 101%
- viability, T/C (second compound 0.1 µM, first compound 0.01 µM): 91.9%
- viability, T/C [3]: 105%
- viability, T/C [4]: 50.5%
- viability, T/C (second compound 0.316 µM, first compound 0.000316 µM): 99%
- viability, T/C (second compound 0.316 µM, first compound 0.001 µM): 89.1%
- viability, T/C (second compound 0.316 µM, first compound 0.00316 µM): 102%
- viability, T/C (second compound 0.316 µM, first compound 0.01 µM): 97.1%
- viability, T/C [5]: 104%
- viability, T/C [6]: 59.5%
- viability, T/C (second compound 1 µM, first compound 0.000316 µM): 99.7%
- viability, T/C (second compound 1 µM, first compound 0.001 µM): 98.4%
- viability, T/C (second compound 1 µM, first compound 0.00316 µM): 98.3%
- viability, T/C (second compound 1 µM, first compound 0.01 µM): 112%
- viability, T/C [7]: 96%
- viability, T/C [8]: 51.1%
- viability, T/C (second compound 3.16 µM, first compound 0.000316 µM): 104%
- viability, T/C (second compound 3.16 µM, first compound 0.001 µM): 89.8%
- viability, T/C (second compound 3.16 µM, first compound 0.00316 µM): 99.1%
- viability, T/C (second compound 3.16 µM, first compound 0.01 µM): 101%
- viability, T/C [9]: 103%
- viability, T/C [10]: 43.6%
- viability, T/C (second compound 10 µM, first compound 0.000316 µM): 103%
- viability, T/C (second compound 10 µM, first compound 0.001 µM): 96.9%
- viability, T/C (second compound 10 µM, first compound 0.00316 µM): 93.5%
- viability, T/C (second compound 10 µM, first compound 0.01 µM): 87%
- viability, T/C [11]: 89.3%
- viability, T/C [12]: 33.7%

Compound: CC1(C)CCC(CN2CCN(c3ccc(C(=O)NS(=O)(=O)c4ccc(NCC5CCOCC5)c([N+](=O)[O-])c4)c(Oc4cnc5[nH]ccc5c4)c3)CC2)=C(c2ccc(Cl)cc2)C1 + CC(Nc1ncnc2nc[nH]c12)c1cc2cccc(Cl)c2c(=O)n1-c1ccccc1
- pIC50 (second compound 0.0316 µM): < 5.00
- pIC50 (second compound 0.1 µM): < 5.00
- pIC50 (second compound 0.316 µM): < 5.00
- pIC50 (second compound 1 µM): < 5.00
- pIC50 (second compound 3.16 µM): < 5.00
- pIC50 (second compound 10 µM): < 5.00
- viability, T/C [1]: 99.2%
- viability, T/C [2]: 91.9%
- viability, T/C [13]: 95.7%
- viability, T/C [14]: 96%
- viability, T/C [15]: 117%
- viability, T/C [16]: 114%
- viability, T/C [3]: 94.4%
- viability, T/C [4]: 95.8%
- viability, T/C [17]: 98.7%
- viability, T/C [18]: 102%
- viability, T/C [19]: 105%
- viability, T/C [20]: 106%
- viability, T/C [5]: 111%
- viability, T/C [6]: 106%
- viability, T/C [21]: 104%
- viability, T/C [22]: 118%
- viability, T/C [23]: 113%
- viability, T/C [24]: 104%
- viability, T/C [7]: 100%
- viability, T/C [8]: 94%
- viability, T/C [25]: 92.6%
- viability, T/C [26]: 98.6%
- viability, T/C [27]: 110%
- viability, T/C [28]: 110%
- viability, T/C [9]: 100%
- viability, T/C [10]: 107%
- viability, T/C [29]: 95.4%
- viability, T/C [30]: 109%
- viability, T/C [31]: 115%
- viability, T/C [32]: 98.2%
- viability, T/C [11]: 105%
- viability, T/C [12]: 95.6%
- viability, T/C [33]: 97.3%
- viability, T/C [34]: 103%
- viability, T/C [35]: 120%
- viability, T/C [36]: 93.9%

Compound: C[C@@H](NC(=O)c1ncnc(N)c1Cl)c1ncc(C(=O)Nc2cc(C(F)(F)F)c(Cl)cn2)s1 + CC(Nc1ncnc2nc[nH]c12)c1cc2cccc(Cl)c2c(=O)n1-c1ccccc1
- pIC50 (second compound 0.0316 µM): < 5.00
- pIC50 (second compound 0.1 µM): < 5.00
- pIC50 (second compound 0.316 µM): < 5.00
- pIC50 (second compound 1 µM): < 5.00
- pIC50 (second compound 3.16 µM): < 5.00
- pIC50 (second compound 10 µM): < 5.00
- viability, T/C [1]: 98%
- viability, T/C [2]: 87.3%
- viability, T/C [13]: 95.9%
- viability, T/C [14]: 101%
- viability, T/C [15]: 104%
- viability, T/C [16]: 105%
- viability, T/C [3]: 106%
- viability, T/C [4]: 109%
- viability, T/C [17]: 97.7%
- viability, T/C [18]: 96.5%
- viability, T/C [19]: 94.7%
- viability, T/C [20]: 103%
- viability, T/C [5]: 95.7%
- viability, T/C [6]: 115%
- viability, T/C [21]: 108%
- viability, T/C [22]: 103%
- viability, T/C [23]: 98.7%
- viability, T/C [24]: 96.6%
- viability, T/C [7]: 101%
- viability, T/C [8]: 101%
- viability, T/C [25]: 103%
- viability, T/C [26]: 96.2%
- viability, T/C [27]: 102%
- viability, T/C [28]: 86.5%
- viability, T/C [9]: 104%
- viability, T/C [10]: 105%
- viability, T/C [29]: 92.7%
- viability, T/C [30]: 106%
- viability, T/C [31]: 96.4%
- viability, T/C [32]: 96%
- viability, T/C [11]: 101%
- viability, T/C [12]: 99.7%
- viability, T/C [33]: 92.5%
- viability, T/C [34]: 108%
- viability, T/C [35]: 98.8%
- viability, T/C [36]: 93.3%

Reference: PubChem BioAssay AID1963968 (Molecular Pharmacology Branch, DTP, NCI, 2024)
